Several values for one entry are separate records, joined by “and”; a condition that tells them apart may be missing. Equal entries are not always repeated.
Legend:
T. brucei TREU 667/1 [1] = experiment: Early (3 day old) T. brucei TREU 667/1 infection in mice, cure after i.p. treatment; type: in vivo, Trypanosoma brucei; conditions: for Number Cured Out of Total Treated: CFLP mice infected for 3 days
Excerpt: The mice used were adult CFLP females approximately 25-30 g. and maintained on standard laboratory diet throughout the experiments. Two stabilates were used throughout the experiments, the main one was T. brucei TREU 667/1 originally obtained from Dr. A. R. Gray, Edinburgh, and the other T. brucei LUMP 1001 obtained from Professor […], London. These were cryogenically maintained as previously described in Jennings, […], Parasitol. 75, 143-153 (1977). Each mouse was inoculated intraperitoneally with 1 x 10^4 trypanosomes prepared from the stabilate in phosphate glucose saline pH 8.0. Chemotherapy commenced at various times post inoculation. Each mouse was weighed and the requisite dose of drug administered intraperitoneally in a volume of 0.1 ml./5g. body weight. Compounds I, II and III were used in crystalline powder forms. These were first ground finely in an agate mortar and then suspended in physiological saline for intraperitoneal injection. A drop of detergent (Tween 80) was added to the suspensions to facilitate wetting. Care was taken during dispensing that the suspensions were properly dispersed, and because of some slight unavoidable settlement in the syringe, the mice were always injected at random and usually not more than 3 mice were injected from the one syringe full of drug suspension. As the regimen was usually 4 daily doses at the respective drug concentration, any errors were evenly distributed. […] All were prepared according to the manufacturer's instructions and were injected intraperitoneally. The mice were examined for parasites on the day treatment was initiated (usually day 3 or 21 of infection) by examination of a drop of tail blood under x40 objective (wet film technique). […] The three compounds, I, II and III were used at various dose levels against an early infection of T. brucei TREU 667/1 in CFLP. The dose regimen was initiated 3 days after infection and the intraperitoneal injections of drug suspension were given daily.

T. brucei TREU 667/1 [2] = experiment: Chronic (21 day old) T. brucei TREU 667/1 infection in mice, cure/relapse after i.p. treatment; type: in vivo, Trypanosoma brucei; conditions: for Number Cured Out of Total Treated: mice infected for 21 days; for time after treatment until signs of relapse: some of the mice treated with the prophylactic drugs (pretreatment experiments of Table 3)
Excerpt: The mice used were adult CFLP females approximately 25-30 g. and maintained on standard laboratory diet throughout the experiments.
Two stabilates were used throughout the experiments, the main one was T. brucei TREU 667/1 originally obtained from Dr. A. R. Gray, Edinburgh, and the other T. brucei LUMP 1001 obtained from Professor W. H. R. Lumsden, London. These were cryogenically maintained as previously described in Jennings, Whitelaw & Urquhart, Parasitol. 75, 143-153 (1977).
Each mouse was inoculated intraperitoneally with 1 x 10^4 trypanosomes prepared from the stabilate in phosphate glucose saline pH 8.0. Chemotherapy commenced at various times post inoculation. Each mouse was weighed and the requisite dose of drug administered intraperitoneally in a volume of 0.1 ml./5g. body weight.
Compounds I, II and III were used in crystalline powder forms. These were first ground finely in an agate mortar and then suspended in physiological saline for intraperitoneal injection. A drop of detergent (Tween 80) was added to the suspensions to facilitate wetting. Care was taken during dispensing that the suspensions were properly dispersed, and because of some slight unavoidable settlement in the syringe, the mice were always injected at random and usually not more than 3 mice were injected from the one syringe full of drug suspension. As the regimen was usually 4 daily doses at the respective drug concentration, any errors were evenly distributed.
The other established drugs used were Berenil (diminazene aceturate, obtained from Fabwerke, Hoechst, Germany, 40 mg./kg. unless otherwise specified), Ethidium (homidium bromide 7.5 mg./kg.) and Prothidium (pyrithidium bromide 10 mg./kg. obtained from Boots Pure Drug Co., England) and Samorin (isometamidium 2 mg./kg. obtained from May & Baker Ltd.). […]
The mice were examined for parasites on the day treatment was initiated (usually day 3 or 21 of infection) by examination of a drop of tail blood under x40 objective (wet film technique). Subsequent to treatment they were examined every 2 days for 6 days and thereafter once per week until relapse occurred or until the experiment was terminated (in some instances 6-7 months).
The initial work with Berenil was carried out using the dose rate of 40 mg./kg. which was the dose of drug used in all the original work on chronic infections.
In addition, groups of mice were given Berenil and the Compound III simultaneously, or one injection of Berenil followed by one injection of Compound III in order to compress the treatment into the minimum number of injections.

T. brucei LUMP 1001 [3] = experiment: Chronic (21 day old) T. brucei LUMP 1001 infection in mice, cure/relapse after i.p. treatment; type: in vivo, Trypanosoma brucei
Excerpt: The mice used were adult CFLP females approximately 25-30 g. and maintained on standard laboratory diet throughout the experiments. Two stabilates were used throughout the experiments, the main one was T. brucei TREU 667/1 originally obtained from Dr. A. R. Gray, Edinburgh, and the other T. brucei LUMP 1001 obtained from Professor […], London. These were cryogenically maintained as previously described in Jennings, […], Parasitol. 75, 143-153 (1977). Each mouse was inoculated intraperitoneally with 1 x 10^4 trypanosomes prepared from the stabilate in phosphate glucose saline pH 8.0. Chemotherapy commenced at various times post inoculation. Each mouse was weighed and the requisite dose of drug administered intraperitoneally in a volume of 0.1 ml./5g. body weight. Compounds I, II and III were used in crystalline powder forms. These were first ground finely in an agate mortar and then suspended in physiological saline for intraperitoneal injection. A drop of detergent (Tween 80) was added to the suspensions to facilitate wetting. Care was taken during dispensing that the suspensions were properly dispersed, and because of some slight unavoidable settlement in the syringe, the mice were always injected at random and usually not more than 3 mice were injected from the one syringe full of drug suspension. As the regimen was usually 4 daily doses at the respective drug concentration, any errors were evenly distributed. […] All were prepared according to the manufacturer's instructions and were injected intraperitoneally. The mice were examined for parasites on the day treatment was initiated (usually day 3 or 21 of infection) by examination of a drop of tail blood under x40 objective (wet film technique). […] It was known that T. brucei LUMP 1001 relapsed after treatment of a 21 day old infection Jennings, […], Parasitol. 75, 143-153 (1977), and indeed tended to relapse earlier after treatment with Berenil at 40 mg./kg. than any of the other stabilates tested (approximately 20 days). The original experiment using 40 mg./kg. Berenil as pre-treatment followed by Compound III was disappointing, as only 3 out of a total of 27 mice appeared to be cured by the various dose regimens. The experiment was therefore repeated increasing the pretreatment dose of Berenil to 60 mg./kg. and 80 mg./kg., the latter being given as two doses of 40 mg./kg. on consecutive days to avoid the possibility of deaths due to the toxicity of Berenil at that dose level in mice. This pretreatment was followed by administration of Compound III at 4 doses of 80 mg./kg. and in both instances where the increased Berenil dose level (60 mg./kg. and 80 mg./kg.) was used, satisfactory permanent cures were accomplished, whereas in the respective controls all of the mice relapsed.

T. brucei LUMP 1001 [4] = conditions: 21 day old infection; Berenil at 40 mg./kg.; cited from earlier work
[5] = Berenil 40 mg./kg. day 21, no further treatment
[6] = 4 x 5 mg./kg. daily i.p., cure = no parasites in blood for at least 90 days
[7] = 4 x 20 mg./kg. daily i.p., cure = no parasites in blood for at least 90 days
[8] = single drug 4 x 20 mg./kg. daily i.p.

For `N=C(N)c1ccc(N=NNc2ccc(C(=N)N)cc2)cc1` [Berenil, diminazene aceturate], the “permanent cure of early infections” value (T. brucei TREU 667/1 [1]; early infection, Berenil 5 mg./kg.) was “can be permanently cured”, the “time for which all circulating trypanosomes are cleared from the bloodstream” value (T. brucei TREU 667/1 [2]; 5 mg./kg. Berenil) was “up to 20 days” and the “outcome after treatment” value (T. brucei TREU 667/1 [2]; 21 day old infection, 160 mg./kg. Berenil given subcutaneously) was “relapsed”. For the same compound, the “No. Cured Out of Total Treated” value (T. brucei TREU 667/1 [2]; Berenil 5 mg./kg. day 21, no further treatment) was 0/10, the “No. Cured Out of Total Treated” value (T. brucei TREU 667/1 [2]; Berenil 5 mg./kg. day 21, then Berenil 5 mg./kg. day 24) was 0/10 and the “No. Cured Out of Total Treated” value (T. brucei TREU 667/1 [2]; Berenil 20 mg./kg. day 21, no further treatment) was 0/10. The “No. Cured Out of Total Treated” value (T. brucei TREU 667/1 [2]; [5]) was 1/10 and 1/9, the cure rate (T. brucei TREU 667/1 [2]; Berenil (40 mg./kg.) given alone, in the particular experiment with the simultaneous group) was 60% and the “outcome after repeated treatment” value (T. brucei TREU 667/1 [2]; infected 21 days, Berenil alone 40 mg./kg., retreated every 30 days for a total of 5 months, a proportion of mice) was “eventually become parasitaemic again”. For the same compound, the “No. Cured Out of Total Treated” value (T. brucei LUMP 1001 [3]; [5]) was 0/10 and 0/9, the “No. Cured Out of Total Treated” value (T. brucei LUMP 1001 [3]; Berenil 60 mg./kg. day 21, no further treatment) was 0/8 and the “No. Cured Out of Total Treated” value (T. brucei LUMP 1001 [3]; Berenil 80 mg./kg., given as 2 x 40 mg./kg. on day 21 and day 24, no further treatment) was 0/8. The “time to relapse after treatment” value (T. brucei LUMP 1001 [4]) was “approximately 20 days”.
For `Cn1c([N+](=O)[O-])cnc1COC(N)=O` [Compound I, 1-methyl-5-nitroimidazol-2-ylmethylcarbamate], the “Number Cured Out of Total Treated” value (T. brucei TREU 667/1 [1]; [6]) was 0/8 and the “Number Cured Out of Total Treated” value (T. brucei TREU 667/1 [1]; [7]) was 0/8.
In the case of `Cn1c([N+](=O)[O-])cnc1C1=NOC2CCCCC12` (stereo not drawn) [Compound II, 3'-(1-methyl-5-nitroimidazol-2-yl)-4'5'-tetramethylene-Δ^2-isoxazoline], the cure rate (T. brucei TREU 667/1 [1]; 3-day old infection, 4 doses of 80 mg./kg.) is reported as 100%, the “Number Cured Out of Total Treated” value (T. brucei TREU 667/1 [1]; [6]) is reported as 0/8 and the “Number Cured Out of Total Treated” value (T. brucei TREU 667/1 [1]; [7]) is reported as 2/8. For the same compound, the “Number Cured Out of Total Treated” value (T. brucei TREU 667/1 [1]; 4 x 80 mg./kg. daily i.p., separate experiment) was 10/10 and the “Number Cured Out of Total Treated” value (T. brucei TREU 667/1 [2]; [8]) was 0/9.
In the case of `Cn1c([N+](=O)[O-])cnc1C1=NOC2CCCCCCC12` (stereo not drawn) [Compound III], the cure (T. brucei TREU 667/1 [1]; 3-day old infection, 4 doses at 20 mg./kg.) is reported as 100%, the “Number Cured Out of Total Treated” value (T. brucei TREU 667/1 [1]; [6]) is reported as 2/8 and the “Number Cured Out of Total Treated” value (T. brucei TREU 667/1 [1]; [7]) is reported as 8/8. The “period after treatment until the last of the mice relapsed” value (T. brucei TREU 667/1 [2]; established (21 day) infection, 4 doses at 80 mg./kg.) was 42 days, the “Number Cured Out of Total Treated” value (T. brucei TREU 667/1 [2]; [8]) was 0/9 and 0/10 and 0/8 and the “Number Cured Out of Total Treated” value (T. brucei TREU 667/1 [2]; single drug 4 x 80 mg./kg. daily i.p.) was 0/10. The “No. Cured Out of Total Treated” value (T. brucei TREU 667/1 [2]; no pretreatment, III 4 x 20 mg./kg. commencing day 24) was 0/8 and the “No. Cured Out of Total Treated” value (T. brucei LUMP 1001 [3]; no pretreatment, III 4 x 80 mg./kg. commencing day 24) was 0/10.
For `CC[n+]1c(-c2ccccc2)c2cc(N)ccc2c2ccc(N)cc21` [Ethidium, homidium bromide], the “No. Cured Out of Total Treated” value (T. brucei TREU 667/1 [2]; Ethidium 7.5 mg./kg. day 21, no further treatment) was 0/10.
For `Cc1cc(Nc2ccc3c(c2)c(-c2ccc(N)cc2)[n+](C)c2cc(N)ccc32)nc(N)[n+]1C.[Br-].[Br-]` [Prothidium, pyrithidium bromide], the “No. Cured Out of Total Treated” value (T. brucei TREU 667/1 [2]; Prothidium 10.0 mg./kg. day 21, no further treatment) was 0/8 and the “time after treatment until signs of relapse” value (T. brucei TREU 667/1 [2]) was 6-7 months.
For `CC[n+]1c(-c2ccccc2)c2cc(N/N=N/c3cccc(C(=N)N)c3)ccc2c2ccc(N)cc21` [Samorin, isometamidium], the “No. Cured Out of Total Treated” value (T. brucei TREU 667/1 [2]; Samorin 2.0 mg./kg. day 21, no further treatment) was 0/10 and the “time after treatment until signs of relapse” value (T. brucei TREU 667/1 [2]) was 6-7 months.

From patent EP0006752A1, “Compositions for the treatment of chronic trypanosomiasis infections” (Merck & Co., Inc., priority 1978, dated 1980)
